Values after ≈ are worked out from the molar mass of the structure shown.
Tests used:
Type in all cases: functional
[1] = test system: Candida albicans; assay: Antimicrobial activity against Candida albicans MTCC 183 after 48 to 72 hrs by broth micro dilution method
[2] = test system: Xanthomonas campestris; assay: Antimicrobial activity against Xanthomonas campestris after 18 hrs by broth micro dilution method
[3] = test system: Pseudomonas aeruginosa; assay: Antimicrobial activity against Pseudomonas aeruginosa MTCC 1034 after 18 hrs by broth micro dilution method; conditions: MTCC 1034, 18 h
[4] = test system: Priestia megaterium; assay: Antimicrobial activity against Bacillus megaterium MTCC 3382 after 18 hrs by broth micro dilution method; conditions: MTCC 3382, 18 h
[5] = test system: Escherichia coli; assay: Antimicrobial activity against Escherichia coli MTCC 1089 after 18 hrs by broth micro dilution method; conditions: MTCC 1089, 18 h

Row | Structure (SMILES) | MIC [1] [µg/mL] | MIC [2] [µg/mL] | MIC [3] [µg/mL] | MIC [4] [µg/mL] | MIC [5] [µg/mL]
1 | OC(Cn1cncn1)(Cn1cncn1)c1ccc(F)cc1F [FLUCONAZOLE] | 32 (≈ 104 µM) |  |  |  | 
2 | Cc1cc2c(cc1S(=O)(=O)NCCCN1CCN(c3ccccc3F)CC1)NC(=O)CO2 | 250 (≈ 540 µM) | 250 (≈ 540 µM) | 250 (≈ 540 µM) | 250 (≈ 540 µM) | 250 (≈ 540 µM)
3 | COc1ccc(C(=O)CN2C(=O)COc3cc(C)c(S(=O)(=O)N4CCN(c5ccccc5OC)CC4)cc32)cc1 | 31.2 (≈ 55.2 µM) | 62.5 (≈ 110 µM) | 31.2 (≈ 55.2 µM) | 31.2 (≈ 55.2 µM) | 62.5 (≈ 110 µM)
4 | Cc1cc2c(cc1S(=O)(=O)NCCCN1CCN(c3ccc(C(F)(F)F)cc3)CC1)NC(=O)CO2 | 125 (≈ 244 µM) | 62.5 (≈ 122 µM) | 250 (≈ 488 µM) | 62.5 (≈ 122 µM) | 250 (≈ 488 µM)
5 | COc1ccccc1N1CCN(S(=O)(=O)c2cc3c(cc2C)OCC(=O)N3CC(=O)c2ccc(Cl)cc2)CC1 | 250 (≈ 439 µM) | 125 (≈ 219 µM) | 250 (≈ 439 µM) | 250 (≈ 439 µM) | 250 (≈ 439 µM)
6 | O=C1COc2ccc(S(=O)(=O)NCCCN3CCN(c4ccccc4)CC3)cc2N1 | 500 (≈ 1160 µM) | 500 (≈ 1160 µM) | 500 (≈ 1160 µM) | 250 (≈ 581 µM) | 500 (≈ 1160 µM)
7 | COc1ccccc1N1CCN(CCCNS(=O)(=O)c2ccc3c(c2)NC(=O)CO3)CC1 | 62.5 (≈ 136 µM) | 125 (≈ 271 µM) | 125 (≈ 271 µM) | 31.2 (≈ 67.9 µM) | 250 (≈ 543 µM)
8 | COc1ccccc1N1CCN(S(=O)(=O)c2cc3c(cc2C)OCC(=O)N3CC(=O)c2ccc(C)cc2)CC1 | 62.5 (≈ 114 µM) | 125 (≈ 227 µM) | 62.5 (≈ 114 µM) | 125 (≈ 227 µM) | 62.5 (≈ 114 µM)
9 | Cc1cc2c(cc1S(=O)(=O)N1CCN(c3ccc(C(F)(F)F)cc3)CC1)N(CC(=O)c1ccccc1)C(=O)CO2 | 250 (≈ 436 µM) | 250 (≈ 436 µM) | 250 (≈ 436 µM) | 250 (≈ 436 µM) | 250 (≈ 436 µM)
10 | Cc1ccc(C(=O)CN2C(=O)COc3cc(C)c(S(=O)(=O)N4CCN(c5ccc(C(F)(F)F)cc5)CC4)cc32)cc1 | 250 (≈ 425 µM) | 125 (≈ 213 µM) | 31.2 (≈ 53.2 µM) | 125 (≈ 213 µM) | 62.5 (≈ 106 µM)
11 | COc1ccccc1N1CCN(S(=O)(=O)c2cc3c(cc2C)OCC(=O)N3)CC1 | 500 (≈ 1200 µM) | 500 (≈ 1200 µM) | 500 (≈ 1200 µM) | 250 (≈ 599 µM) | 500 (≈ 1200 µM)
12 | Cc1cc2c(cc1S(=O)(=O)N1CCN(c3ccc(C(F)(F)F)cc3)CC1)N(CC(=O)c1ccc([N+](=O)[O-])cc1)C(=O)CO2 | 31.2 (≈ 50.5 µM) | 125 (≈ 202 µM) | 31.2 (≈ 50.5 µM) | 31.2 (≈ 50.5 µM) | 62.5 (≈ 101 µM)
13 | O=C1COc2ccc(S(=O)(=O)NCCCN3CCN(c4ccc(F)cc4)CC3)cc2N1 | 250 (≈ 557 µM) | 125 (≈ 279 µM) | 62.5 (≈ 139 µM) | 250 (≈ 557 µM) | 500 (≈ 1110 µM)
14 | O=C1COc2ccc(S(=O)(=O)NCCCN3CCN(c4ccccc4F)CC3)cc2N1 | 125 (≈ 279 µM) | 62.5 (≈ 139 µM) | 62.5 (≈ 139 µM) | 31.2 (≈ 69.7 µM) | 125 (≈ 279 µM)
15 | Cc1cc2c(cc1S(=O)(=O)N1CCN(c3ccc(C(F)(F)F)cc3)CC1)N(CC(=O)c1ccc(Cl)cc1)C(=O)CO2 | 500 (≈ 822 µM) | 500 (≈ 822 µM) | 500 (≈ 822 µM) | 250 (≈ 411 µM) | 500 (≈ 822 µM)
16 | Cc1cc2c(cc1S(=O)(=O)N1CCN(c3ccc(C(F)(F)F)cc3)CC1)N(CC(=O)c1cccs1)C(=O)CO2 | 31.2 (≈ 53.9 µM) | 125 (≈ 216 µM) | 31.2 (≈ 53.9 µM) | 31.2 (≈ 53.9 µM) | 125 (≈ 216 µM)
17 | COc1ccccc1N1CCN(S(=O)(=O)c2cc3c(cc2C)OCC(=O)N3CC(=O)c2ccccc2)CC1 | 62.5 (≈ 117 µM) | 62.5 (≈ 117 µM) | 125 (≈ 233 µM) | 62.5 (≈ 117 µM) | 125 (≈ 233 µM)
18 | COc1ccccc1N1CCN(S(=O)(=O)c2cc3c(cc2C)OCC(=O)N3CC(=O)c2ccc([N+](=O)[O-])cc2)CC1 | 250 (≈ 431 µM) | 125 (≈ 215 µM) | 250 (≈ 431 µM) | 62.5 (≈ 108 µM) | 250 (≈ 431 µM)
19 | Cc1cc2c(cc1S(=O)(=O)N1CCN(c3ccc(C(F)(F)F)cc3)CC1)NC(=O)CO2 | 500 (≈ 1100 µM) | 500 (≈ 1100 µM) | 250 (≈ 549 µM) | 250 (≈ 549 µM) | 500 (≈ 1100 µM)
20 | Cc1cc2c(cc1S(=O)(=O)N1CCN(c3ccc(C(F)(F)F)cc3)CC1)N(CC(=O)c1ccc(-c3ccccc3)cc1)C(=O)CO2 | 125 (≈ 192 µM) | 125 (≈ 192 µM) | 125 (≈ 192 µM) | 125 (≈ 192 µM) | 250 (≈ 385 µM)
21 | CO[C@H]1/C=C/O[C@@]2(C)Oc3c(C)c(O)c4c(O)c(c(/C=N/N5CCN(C)CC5)c(O)c4c3C2=O)NC(=O)/C(C)=C\C=C\[C@H](C)[C@H](O)[C@@H](C)[C@@H](O)[C@@H](C)[C@H](OC(C)=O)[C@@H]1C [RIFAMPIN] |  | 32 (≈ 38.9 µM) | 32 (≈ 38.9 µM) | 64 (≈ 77.8 µM) | 64 (≈ 77.8 µM)
22 | COc1ccccc1N1CCN(S(=O)(=O)c2cc3c(cc2C)OCC(=O)N3CC(=O)c2cccs2)CC1 | 250 (≈ 462 µM) | 250 (≈ 462 µM) | 250 (≈ 462 µM) | 500 (≈ 923 µM) | 250 (≈ 462 µM)
23 | COc1ccccc1N1CCN(CCCNS(=O)(=O)c2cc3c(cc2C)OCC(=O)N3)CC1 | 250 (≈ 527 µM) | 500 (≈ 1050 µM) | 500 (≈ 1050 µM) | 250 (≈ 527 µM) | 500 (≈ 1050 µM)
24 | COc1ccc(C(=O)CN2C(=O)COc3cc(C)c(S(=O)(=O)N4CCN(c5ccc(C(F)(F)F)cc5)CC4)cc32)cc1 | 250 (≈ 414 µM) | 250 (≈ 414 µM) | 125 (≈ 207 µM) | 62.5 (≈ 104 µM) | 250 (≈ 414 µM)
25 | Cc1cc2c(cc1S(=O)(=O)NCCCN1CCN(c3ccccc3)CC1)NC(=O)CO2 | 250 (≈ 562 µM) | 250 (≈ 562 µM) | 250 (≈ 562 µM) | 250 (≈ 562 µM) | 250 (≈ 562 µM)
26 | Cc1cc2c(cc1S(=O)(=O)NCCCN1CCSCC1)NC(=O)CO2 | 250 (≈ 648 µM) | 250 (≈ 648 µM) | 500 (≈ 1300 µM) | 125 (≈ 324 µM) | 500 (≈ 1300 µM)
27 | COc1ccccc1N1CCN(S(=O)(=O)c2cc3c(cc2C)OCC(=O)N3CC(=O)c2ccc(-c3ccccc3)cc2)CC1 | 500 (≈ 817 µM) | 125 (≈ 204 µM) | 250 (≈ 409 µM) | 62.5 (≈ 102 µM) | 500 (≈ 817 µM)
28 | O=C1COc2ccc(S(=O)(=O)NCCCN3CCN(c4ccc(C(F)(F)F)cc4)CC3)cc2N1 | 125 (≈ 251 µM) | 125 (≈ 251 µM) | 125 (≈ 251 µM) | 62.5 (≈ 125 µM) | 500 (≈ 1000 µM)

— ChEMBL document CHEMBL3397028, “Synthesis and antimicrobial activity of novel benzoxazine sulfonamide derivatives” (2015)
